From patent publication US8258130B2 (Sanofi, priority 2007, dated 2012)

Legend:
human h-PGDS = human h-PGDS (Homo sapiens, UniProt O60760); assay: Enzyme Immunoassay (EIA) method, inhibition of hematopoietic PGD2 synthase; format: biochemical; conditions: EIA assay, PGD2 formed from PGH2 by human h-PGDS
Protocol: Assay 2: Enzyme Immunoassay (EIA) Method
• a. Preparation of 0.1M K2HPO4/KH2PO4 buffer (pH 7.4) • Prepare 0.1 M KH2PO4 from 1M KH2PO4 (Sigma, Cat# P-8709) • Prepare 0.1 M K2HPO4 from powder of K2HPO4 (Fisher, BP363-500) • Mix 0.1 M K2HPO4 with 0.1 M KH2PO4 to adjust pH to 7.4. • b. Preparation of 0.5% γ-globulin • Add 0.1 g of γ-globulin (Sigma, Cat# G-5009) to 20 mL 0.1 M K2HPO4/KH2PO4 buffer (pH 7.4) and make 1-mL/vial aliquots and store in −80° C. • c. Preparation of 100 mM GSH • Add 307 mg of GSH (Sigma, Cat# G-6529) to 10 mL 0.1 M K2HPO4/KH2PO4 buffer (pH 7.4) and store at −80° C. • d. Preparation of Reaction buffer: • 198 mL of 0.1M K2HPO4/KH2PO4 buffer (pH 7.4) • 2 mM GSH—Prepared from 100 mM GSH • 0.4 g Glycerol • 2 mL of 0.5% γ-globulin • Add 0.4 g of glycerol and 2 mL of 0.5% γ-globulin to 198 mL of 0.1 M K2HPO4/KH2PO4 • buffer (pH7.4). • Add 0.4 mL of 100 mM GSH to 19.6 mL reaction buffer before the assay (enough for two 96-well plates). • e. Preparation of FeCl2/citric acid stopping solution: (8 mg/mL FeCl2, 0.1 M citric acid) • Add 40 mg fresh FeCl2 (IGN, Cat# 158046) to 5 mL 0.1 M citric acid (Sigma, Cat# C0759). • f. Preparation of MOX reagent: • 10% EtOH—Add 1 mL of EtOH to 9 mL of ultra pure H2O • Dissolve 0.1 g of methoxyl amine (Cayman, Cat# 400036/) in 10% EtOH (10 mL). • Add 0.82 g of sodium acetate (Cayman, Cat#400037) to MOX solution and dissolve. II. Materials and Method • Dimethylsulfoxide (DMSO; Sigma; Cat# D2650) • Prostaglandin D2-MOX express EIA kit (Caymen Chemical, Catalog No. 500151)
Before the assay, cool down 10 mL of acetone in polypropylene tubes and empty 96 well plates in ice. All the procedures except compound dilution are performed on ice.
• 1. Dilute compound in DMSO
• 2. Dilute 2 μL of each above concentration of compound to 38 μL of reaction buffer in 96-well plates and mix. IV. Enzyme and Substrate Solution Preparation • 1 Preparation of 0.39 ng/μL enzyme solution (0.35 ng/μL at final after compound addition). • Mix 4 μL of 4 mg/mL human h-PGDS with 396 μL of reaction buffer (to give enzyme concentration 40 μg/mL). Add 46.8 μL of 40 μg/mL h-PGDS to 4.753 mL of reaction buffer to give a total volume of 4.8 mL • 2. Preparation of Substrate Solution (PGH2): Add 0.375 mL of 0.1 mg/mL of PGH2 to 1.625 mL acetone. V. Enzyme Reaction: • 1. Add 60 μL of enzyme solution to compound well and positive control (without compound) in U-bottom polypropylene plate on ice. • 2. Add 60 μL of reaction buffer and 6.6 μL of 5% DMSO in reaction buffer into negative control wells in the plate. • 3. Add 6.6 μL of diluted compound in reaction buffer to the compound wells and mix. • 4. Add 6.6 μL of 5% DMSO in reaction buffer to the positive control well. • 5. Incubate the plate in ice for at least 30 min. • 6. Add 20 μL of substrate (PGH2) solution to compound, negative and positive control wells in the U-bottom 96 well plate on ice. • 7. Dry the plate in cold room for about 25-28 min. • 8. Pipette 45 μL of enzyme solution (above) into 96-wells with dried PGH2 and mix 3 times. Incubate on the ice for 1 min. • 9. Add 45 μL of FeCl2 solution into each wells and mix. • 10. Add 90 μL of MOX solution and mix. • 11. Incubate for 30 min at 60° C. • 12. Dilute the samples 2500× with EIA buffer. VI. EIA Assay • Perform the assay according to the procedure in EIA kit provided by Cayman. Total PGD2 levels (pg/mL) were determined in the samples by EIA kits (Caymen Chemical, Catalog No. 500151) Calculate Amount of PGD2 as Below • Calculated % Positive control according to the equation below; % Positive control=(Compound value−Negative control)/(Positive value−Negative control value)×100. […]

rat = rat model; cited from earlier work
PGDS = conditions: cited from earlier work
guinea pig = guinea pig model; cited from earlier work

Sequence of human h-PGDS (O60760 whole entry): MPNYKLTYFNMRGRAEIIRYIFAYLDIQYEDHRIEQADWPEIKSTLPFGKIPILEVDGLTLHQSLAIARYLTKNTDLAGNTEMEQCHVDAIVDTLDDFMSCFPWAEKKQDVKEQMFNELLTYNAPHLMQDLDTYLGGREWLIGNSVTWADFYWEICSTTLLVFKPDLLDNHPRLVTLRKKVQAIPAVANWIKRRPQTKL

SMILES	IC50 (human h-PGDS)	further results
Cc1cn(NC(=O)c2cnc(-c3ccccn3)nc2C(F)(F)F)c2ccc(F)cc12 [Example 209, 2-Pyridin-2-yl-4-trifluoromethyl-pyrimidine-5-carboxylic acid (5-fluoro-3-methyl-indol-1-yl)-amide]	8 nM	
O=C(NN1CCOc2ccc(F)cc21)c1cnc(-c2cccc(F)c2)nc1 [Example 211, 2-(3-Fluoro-phenyl)-pyrimidine-5-carboxylic acid (6-fluoro-2,3-dihydro-1,4-benzoxazin-4-yl)-amide]	12 nM	
O=C(NN1CCOc2ccc(F)cc21)c1cnc(-c2ccccc2)nc1 [Example 212, 2-Phenyl-pyrimidine-5-carboxylic acid (6-fluoro-2,3-dihydro-1,4-benzoxazin-4-yl)-amide]	21 nM	
Cc1nc(-c2cccc[n+]2[O-])ncc1C(=O)Nn1cc(C)c2cc(F)ccc21 [Example 225, 4-Methyl-2-(1-oxy-pyridin-2-yl)-pyrimidin-5-carboxylic acid (5-fluoro-3-methyl-indol-1-yl)-amide]	851 nM	
Cc1cn(NC(=O)c2cnc(-c3cccc(C(F)F)c3)nc2)c2ccc(F)cc12 [Example 226, 2-(3-Difluoromethyl-phenyl)-pyrimidine-5-carboxylic acid (5-fluoro-3-methyl-indol-1-yl)-amide]	17 nM	
Cc1cn(NC(=O)c2cnc(-c3cccc(C(F)(F)F)c3)nc2)c2ccc(F)cc12 [Example 227, 2-(3-Trifluoromethyl-phenyl)-pyrimidine-5-carboxylic acid (5-fluoro-3-methyl-indol-1-yl)-amide]	262 nM	
c1ccc(C(OC2CCN(CCCc3nn[nH]n3)CC2)c2ccccc2)cc1 [HQL-79]		antiasthmatic effect (rat): antiasthmatic; PGDS inhibition (PGDS): weak PGDS inhibitor; antiasthmatic effect (guinea pig): antiasthmatic
